According to US7960387B2, “2-(3-phenyl-2-piperazinyl-3,4-dihydroquinazolin-4-yl)acetic acids as antiviral agents, especially against cytomegaloviruses” (Bayer Schering Pharma Aktiengesellschaft, priority 2003, dated 2011):
Where a name gives a salt, the structure may show the parent alone. Read-outs that look alike come from different tables or passages of the source.

What was measured:
HCMV = test: Anti-HCMV cytopathogenicity test; type: cell-based, human cytomegalovirus; settings: read-out: HCMV EC50
Protocol: (§1) Anti-HCMV (Anti-Human Cytomegalovirus) Cytopathogenicity Tests The test compounds are employed as 50 millimolar (mM) solutions in dimethyl sulphoxide (DMSO). Ganciclovir®, Foscarnet® and Cidofovir® are used as reference compounds. After addition of in each case 2 μl of the 50, 5, 0.5 and 0.05 mM DMSO stock solutions to 98 μl portions of cell culture medium in row […] for duplicate determinations, 1:2 dilutions are carried out with 50 μl portions of medium up to row 11 of the 96-well plate. The wells in rows 1 and 12 each contain 50 μl of medium. In 150 μl of a suspension of 1×10^4 cells (human prepuce fibroblasts [NHDF]) are pipetted into each of the wells (row 1=cell control) and, in rows 2-12, a mixture of HCMV-infected and uninfected NHDF cells (M.O.I.=0.001-0.002), i.e. 1-2 infected cells per 1000 uninfected cells. Row 12 (without substance) serves as virus control. The final test concentrations are 250-0.0005 μM. The plates are incubated at 37° C./5% CO2 for 6 days, i.e. until all the cells are infected in the virus controls (100% cytopathogenic effect [CPE]). The wells are then fixed and stained by adding a mixture of formalin and Giemsa's dye (30 minutes), washed with double-distilled water and dried in a drying oven at 50° C. The plates are then assessed visually using an overhead microscope (Plaque Multiplier from Technomara). The following data can be acquired from the test plates: • CC50 (NHDF)=substance concentration in μM at which no visible cytostatic effects on the cells are evident by comparison with the untreated cell control; • EC50 (HCMV)=substance concentration in μM which inhibits the CPE (cytopathic effect) by 50% compared with the untreated virus control; • SI (selectivity index)=CC50 (NHDF)/EC50 (HCMV).

[1] = Anti-HCMV cytopathogenicity test: cytostatic effects on NHDF cells; type: cell-based; settings: NHDF cells (human prepuce fibroblasts), 6 days incubation, visual assessment, concentration at which no visible cytostatic effects are evident vs untreated cell control
Protocol: as §1

[2] = Human betaherpesvirus 5, 144 h, HCMV-infected NHDF cells, M.O.I. 0.001-0.002, 6 days, 50% inhibition of CPE vs untreated virus control

Structure (SMILES) | EC50 (HCMV; [2]) [µM] | CC50 at 6 days [1] [µM] | EC50 (HCMV; Human betaherpesvirus 5, NHDF, 144 h) [µM]
Cc1cc(N2CCN(C3=Nc4ccccc4C(CC(=O)O)N3c3cccc(C(F)(F)F)c3)CC2)ccc1F (stereo not shown) [Example 1, {2-[4-(4-Fluoro-3-methylphenyl)-1-piperazinyl]-3-[3-(trifluoromethyl)phenyl]-3,4-dihydro-4-quinazolinyl}acetic acid] | 0.027 | 17 | 
COc1cccc(N2CCN(C3=Nc4ccccc4C(CC(=O)O)N3c3cc(Cl)ccc3OC)CC2)c1 (stereo not shown) [Example 28, {2-[4-(3-Methoxyphenyl)-1-piperazinyl]-3-[2-methoxy-5-chlorophenyl]-3,4-dihydro-4-quinazolinyl]acetic acid] | 0.025 | 63 | 
O=C(O)CC1c2ccccc2N=C(N2CCN(c3cccc(Cl)c3)CC2)N1c1ccc(F)c(Cl)c1 (stereo not shown) [Example 19] | 0.4 | 24 | 
O=C(O)CC1c2ccccc2N=C(N2CCN(c3ccc(F)cc3)CC2)N1c1cc(C(F)(F)F)ccc1F (stereo not shown) [Example 2, {2-[4-(4-Fluorophenyl)-1-piperazinyl]-3-[2-fluoro-5-(trifluoromethyl)phenyl]-3,4-dihydro-4-quinazolinyl}acetic acid hydrochloride] |  | 39 | 0.06
COc1ccc(Cl)cc1N1C(N2CCN(c3ccc(F)cc3)CC2)=Nc2ccccc2C1CC(=O)O (stereo not shown) [Example 29, {2-[4-(4-Fluorophenyl)-1-piperazinyl]-3-[2-methoxy-5-chlorophenyl]-3,4-dihydro-4-quinazolinyl}acetic acid] | 0.07 | 125 | 
COc1ccc(C)cc1N1C(N2CCN(c3cccc(Cl)c3)CC2)=Nc2ccccc2C1CC(=O)O (stereo not shown) [Example 31, {2-[4-(3-Chlorophenyl)-1-piperazinyl]-3-[2-methoxy-5-methylphenyl]-3,4-dihydro-4-quinazolinyl}acetic acid] | 0.14 | 63 | 
COc1ccc(C(F)(F)F)cc1N1C(N2CCN(c3cccc(C)c3)CC2)=Nc2ccccc2C1CC(=O)O (stereo not shown) [Example 27, {2-[4-(3-Methylphenyl)-1-piperazinyl]-3-[2-methoxy-5-(trifluoromethyl)phenyl]-3,4-dihydro-4-quinazolinyl}acetic acid] | 0.13 | 188 | 
COc1ccc(C(F)(F)F)cc1N1C(N2CCN(c3cccc(Cl)c3)CC2)=Nc2ccccc2C1CC(=O)O (stereo not shown) [Example 26, {2-[4-(3-Chlorophenyl)-1-piperazinyl]-3-[2-methoxy-5-(trifluoromethyl)phenyl]-3,4-dihydro-4-quinazolinyl)acetic acid] | 0.019 | 31 | 
COc1ccc(C)cc1N1C(N2CCN(c3cccc(C)c3)CC2)=Nc2ccccc2C1CC(=O)O (stereo not shown) [Example 30, {2-[4-(3-Methylpheny)-1-piperazinyl]-3-[2-methoxy-5-methylphenyl]-3,4-dihydro-4-quinazolinyl}acetic acid] | 0.25 | 250 | 
COc1cccc(N2CCN(C3=Nc4ccccc4C(CC(=O)O)N3c3cccc(C#N)c3)CC2)c1 (stereo not shown) [Example 23] | 0.76 | 188 | 
Cc1cc(Cl)ccc1N1C(N2CCN(c3cccc(Cl)c3)CC2)=Nc2ccccc2C1CC(=O)O (stereo not shown) [Example 6, {2-[4-(3-Chlorophenyl)-1-piperazinyl]-3-[4-chloro-2-methylphenyl]-3,4-dihydro-4-quinazolinyl}acetic acid] | 0.4 | 22 | 
